Results: patent publication US7390816B2, “Methods for treating urinary incontinence in patients suffering from memory disorders” (Bridge Pharma, Inc., priority 2005, dated 2008)
Like-named read-outs stand apart in the source and are kept apart here.

How the values were obtained:
memory = assay: Side effects concerning memory functions, T-shaped maze in conscious rats; type: in vivo; conditions: for Effect on memory: naive rats
Experimental: . Side effects concerning memory functions. Methods:
Conscious rats are used. The animals are placed at the base of a T-shaped maze with a reward placed in one of the arms of the maze. After the animals have learned where the reward is located, said reward is removed and it is investigated how long time it takes in the maze before the rats no longer selected the arm of the maze where the reward had been located. Experiments were also performed in rats that had been pretreated with phenylephrine to increase the permeability of the blood-brain barrier. Control groups of animals were treated with placebo (vehicle only) or with oxybutynin.

[1] = system: carbachol-induced contractions of urinary bladder smooth muscle strips; assay: Antimuscarinic activity on bladder smooth muscle strips (carbachol-induced contractions); type: cell-based, guinea pigs; conditions: Cavia porcellus, read-out: KB for inhibition of carbachol-induced contractions
Excerpt: Conclusions: Trospium had slightly higher affinity for human muscarinic receptors than the reference compounds. The therapeutic activity of anti-muscarinic drugs in overactive human bladders are usually considered to be related to affinity for M-2/M-3 receptors, while the side effect xerostomia (dry mouth) is due mainly, but not exclusively, to inhibition of M-1 receptors in salivary glands. • 2. Functional Characterization of Antimuscarinic and Antispasmodic Activities on Bladder Smooth Muscle Strips. Methods: Experiments have now been performed using methods described by Kachur et al, J Pharmacol Exp Ther. 1988, 247: 867-872 and Noronha-Blob et al. J Pharmacol Exp Ther 256: 562-567. Strips of tissue (approximately 10 mm long and 1.5 mm wide) were removed from the urinary bladder of male guinea pigs. The tissues were suspended in an oxygenated buffer of the following composition, in mM: NaCl 133; KCl 4.7; CaCl2 2.5; MgSO4 0.6; NaH2PO4.1.3; NaHCO3 16.3; and glucose 7.7. The smooth muscle strips were maintained at or about 37.5° C. in tissue chambers and allowed to equilibrate with the bathing solution for one hour before proceeding with the experiment. […]

[2] = male guinea pig urinary bladder strips

SMILES | Effect on memory (memory; T-shaped maze) | Kb [1, 2] | Effect on memory after phenylephrine pretreatment (memory; rats pretreated with phenylephrine to increase blood-brain barrier permeability) | Aggravation of existing memory impairment (memory; rats with memory disorder induced by oxybutynin, T-shaped maze) | Kb [1]
CCN(CC)CC#CCOC(=O)C(O)(c1ccccc1)C1CCCCC1 (centres unmarked) [Oxybutynin] | memory is impaired | 1.5 to 5.5 nM | – | – | –
CC(CC(c1ccccc1)c1ccccc1)NC(C)(C)C (centres unmarked) [terodiline] | – | 1.5 to 5.5 nM | – | – | –
O=C(OC1CC2CCC(C1)[N+]21CCCC1)C(O)(c1ccccc1)c1ccccc1 (centres unmarked) [Trospium, azoniaspiro (3[…]-benziloyl-oxynortro-pane-8,1′-pyrrolidine) chloride] | does not influence the memory | – | did not uncover any impairment of memory | no further aggravation of memory impairment | 1.5 to 5.5 nM
Cc1ccc(O)c([C@H](CCN(C(C)C)C(C)C)c2ccccc2)c1 [Tolterodine] | – | – | – | – | 1.5 to 5.5 nM
